Patent US8753570B2, “Structure, synthesis, and applications for oligo phenylene ethynylenes” (STC.UNM, priority 2008, dated 2014)

How the values were obtained:
[1] = Solubility in water and polar organic solvents; assay type: physicochemical; settings: water and polar organic solvents such as methanol
Description: (§1) While the synthetic steps are all straight-forward, those involving conversion of the diiodobenzene to 4-(4-iodophenyl)-2-methyl-3-butyn-2-ol occur with lower yields and the desired products must be separated from structurally similar byproducts. The alkylamino groups were attached in an early step but converted to the quaternary ammonium derivatives as the last step of the synthesis. The intermediates and final products were characterized by mass spectrometry and proton and carbon NMR. […]

[2] = Self-assembly / complex formation on carboxymethylcellulose (absorption, fluorescence); assay type: binding; settings: two-state model, dimer assumed; estimated from absorbances
Description: N-OPE:CMC complexes can be formed by adding small aliquots of CMC to aqueous solutions containing the N-OPE compound. […] [N-OPE-1]=1.5×10^−5M. […] [N-OPE-2]=1.5×10^−5 and [CMC]=0-4.2×10^−5M. Both excitation and emission slits are 2.5 nm. Excitation wavelength for N-OPE-1 is 355 nm and for N-OPE-2 is 375 nm. For both N-OPEs there are several isosbestic points in the absorption spectra as the two bands in the absorption for water alone are replaced by a spectrum of the N-OPE:CMC having two bands at longer wavelength. For both N-OPEs the fluorescence also undergoes a red shift and increase in intensity as aliquots of CMC are added, finally leveling off at moderate concentrations (greater than 1 mM) of CMC. […]
Binding constants (assuming that an N-OPE dimer is formed in each case) can be estimated from a determination of the individual absorbances of the two species following a treatment for a similar two-state system developed by Pasternack and co-workers. […]
Self-assembly is not limited solely to the non-symmetrical N-OPE compounds. […] The changes that occur for S-OPE-1 (H), N-OPE-1 and S-OPE-1 (COOEt) (sharp, red shifted absorption spectra, isosbestic points maintained throughout the CMC addition and red-shifted fluorescence) are consistent with an extension of effective conjugation for the oligomers on the carboxylate decorated surface of the CMC.

[3] = Fluorescence quantum yields and fluorescence lifetimes in water and methanol; assay type: physicochemical; settings: for φf in CH3OH / φf in H2O / τ (ns): Table 2; for τ (ns): fluorescence lifetime; for fluorescence quantum efficiency: in water, quinine sulfate standard; for Φf / τf (ns): Table 1
Description: as §1
The absorption and fluorescence in methanol occur at very similar wavelengths. In both solvents there is no concentration dependence of the spectra in the micromolar range and it seems likely that in both solvents the N-OPE are monomeric. […] Fluorescent lifetimes in water are correspondingly shorter than in methanol.
Three symmetrical molecules, S-OPE-1 (H), S-OPE-1 (COOEt) and S-OPE-1 (COO—) show similar two-banded absorption spectra in water and methanol.
(§2) The spectra are concentration independent in the micromolar concentration range and there is a small red shift in the series: S-OPE-1 (H), N-OPE-1=S-OPE-1 (COO—), S-OPE-1 (COOEt). […] Furthermore, we have also synthesized and carried out studies of S-OPE-1 (x) where x=NH2, COCH3, both of these compounds show similar absorption spectra to that of S-OPE-1 (COOEt). The fluorescence of all four compounds shown in Table 2 is strong in methanol and there is little variation in fluorescence efficiency among the different substituted derivatives. However there is a significant variation in the fluorescence efficiencies in aqueous solution ranging from 0.02 for S-OPE-1 (COOEt) to 0.80 for S-OPE-1 (H). […] Clearly the ester groups in N-OPE-1 and S-OPE-1 (COOEt) must play a major role in a solvent-dependent process which deactivates the excited singlet of the oligomers in water. Nanosecond transient absorption spectroscopy was carried out on the OPEs in order to monitor the triplet states. […] The transient lifetimes and spectra are consistent with a triplet state assignment. The 1max of triplet-triplet absorption shifts from 518 nm to 569 nm following the extent of conjugation: S-OPE1-H (518 nm), N-OPE-1 (533 nm), S-OPE-1 (COO—) (557 nm), then S-OPE-1 (COOEt) (569 nm). The apparent triplet yields decrease in the order of S-OPE-1 (H)>S-OPE-1 (COO—)>>N-OPE-1>>S-OPE-1 (COOEt). The triplet lifetimes follow a similar trend as the triplet yield (Table 2).

[4] = test system: Pseudomonas aeruginosa Strain PAO1; experiment: Dark and light activated biocidal activity; assay type: cell-based; settings: for biocidal activity: in solution and attached to surfaces; for light activated biocidal activity: short term irradiation with near ultraviolet light
Description: The OPEs described herein have been synthesized and studied as dark and light activated biocides towards a Gram negative bacterium, Pseudomonas aeruginosa Strain PAO1. […] N-OPE-1 has been attached to surfaces by covalent linkage. This has been accomplished for both micron sized glass beads and glass slides.

[5] = Nanosecond transient absorption spectroscopy (triplet state lifetime); assay type: physicochemical; settings: aqueous solution
Description: as §2

[6] = exposed to bacteria in the dark, up to one hour
[7] = suspensions of Pseudomonas, much slower than light-activated

CCOC(=O)c1ccc(C#Cc2cc(OCCC[N+](C)(C)C)c(C#Cc3ccccc3)cc2OCCC[N+](C)(C)C)cc1.[Cl-].[Cl-] [N-OPE-1]
solubility [1]: readily soluble in water and polar organic solvents such as methanol | binding constant K, CMC:(N-OPE)2 [2]: less accurate and slightly lower | φf in CH3OH [3]: 0.68 | φf in H2O [3]: 0.15 | τ (ns) ([3]; column after φf in CH3OH): 1.6 ns | τ (ns) ([3]; column after φf in H2O): 1.5 ns | fluorescence quantum efficiency [3]: ~15% | Φf ([3]; solvent H2O): 0.147 | τf (ns) ([3]; solvent H2O): 0.78 ns | Φf ([3]; solvent Methanol): 0.68 | τf (ns) ([3]; solvent Methanol): 1.57 ns | dark biocidal activity [4, 6]: relatively inactive | biocidal activity [4]: active biocides both in solution and attached to surfaces | light activated biocidal activity [4]: active as a biocide | τTA (μs) [5]: 107 μs

CCOC(=O)c1ccc(C#Cc2cc(OCCC[N+](C)(C)C)c(C#Cc3ccc(C#Cc4cc(OCCC[N+](C)(C)C)c(C#Cc5ccccc5)cc4OCCC[N+](C)(C)C)cc3)cc2OCCC[N+](C)(C)C)cc1.[Cl-].[Cl-].[Cl-].[Cl-] [N-OPE-2]
solubility [1]: readily soluble in water and polar organic solvents such as methanol | fluorescence quantum efficiency [3]: over 1% | Φf ([3]; solvent H2O): 0.012 | τf (ns) ([3]; solvent H2O): 0.37 ns | Φf ([3]; solvent Methanol): 0.68 | τf (ns) ([3]; solvent Methanol): 0.92 ns | dark biocidal activity [4, 6]: active against bacteria both in the dark and in the light | biocidal activity [4]: active biocides both in solution and attached to surfaces | light activated biocidal activity [4]: active against bacteria both in the dark and in the light

CCOC(=O)c1ccc(C#Cc2cc(OCCC[N+](C)(C)C)c(C#Cc3ccc(C#Cc4cc(OCCC[N+](C)(C)C)c(C#Cc5ccc(C#Cc6cc(OCCC[N+](C)(C)C)c(C#Cc7ccccc7)cc6OCCC[N+](C)(C)C)cc5)cc4OCCC[N+](C)(C)C)cc3)cc2OCCC[N+](C)(C)C)cc1.[Cl-].[Cl-].[Cl-].[Cl-].[Cl-].[Cl-] [N-OPE-3]
dark biocidal activity [4, 6]: active against bacteria both in the dark and in the light | biocidal activity [4]: active biocides both in solution and attached to surfaces | light activated biocidal activity [4]: active against bacteria both in the dark and in the light

CCOC(=O)c1ccc(C#Cc2cc(OCCC[N+](C)(C)C)c(C#Cc3ccc(C(=O)OCC)cc3)cc2OCCC[N+](C)(C)C)cc1.[Cl-].[Cl-] [S-OPE-1 (COOEt)]
φf in CH3OH [3]: 0.75 | φf in H2O [3]: 0.023 | fluorescence efficiency in aqueous solution [3]: 0.02 | τ (ns) ([3]; column after φf in CH3OH): 1.4 ns | τ (ns) ([3]; column after φf in H2O): 1.0 ns | τTA (μs) [5]: 77 μs

C[N+](C)(C)CCCOc1cc(C#Cc2ccc(C(=O)[O-])cc2)c(OCCC[N+](C)(C)C)cc1C#Cc1ccc(C(=O)[O-])cc1 [S-OPE-1 (COO—)]
φf in CH3OH [3]: 0.74 | φf in H2O [3]: 0.70 | τ (ns) ([3]; column after φf in CH3OH): 1.3 ns | τ (ns) ([3]; column after φf in H2O): 1.5 ns | τTA (μs) [5]: 136 μs

C[N+](C)(C)CCCOc1cc(C#Cc2ccccc2)c(OCCC[N+](C)(C)C)cc1C#Cc1ccccc1.[Cl-].[Cl-] [S-OPE-1 (H)]
φf in CH3OH [3]: 0.82 | φf in H2O [3]: 0.80 | fluorescence efficiency in aqueous solution [3]: 0.80 | τ (ns) ([3]; column after φf in CH3OH): 1.4 ns | τ (ns) ([3]; column after φf in H2O): 1.6 ns | light-activated biocidal activity (rank) ([4]; suspensions of Pseudomonas): S-OPE-1 (x=H)<S-OPE-2 (x=H) | τTA (μs) [5]: 216 μs

C[N+](C)(C)CCCOc1cc(C#Cc2ccc(C#Cc3cc(OCCC[N+](C)(C)C)c(C#Cc4ccccc4)cc3OCCC[N+](C)(C)C)cc2)c(OCCC[N+](C)(C)C)cc1C#Cc1ccccc1.[Cl-].[Cl-].[Cl-].[Cl-] [S-OPE-2 (x=H)]
light-activated biocidal activity (rank) ([4]; suspensions of Pseudomonas): S-OPE-1 (x=H)<S-OPE-2 (x=H) | dark biocidal activity [4, 7]: observed

C[N+](C)(C)CCCOc1cc(C#Cc2ccc(C#Cc3cc(OCCC[N+](C)(C)C)c(C#Cc4ccc(C#Cc5cc(OCCC[N+](C)(C)C)c(C#Cc6ccccc6)cc5OCCC[N+](C)(C)C)cc4)cc3OCCC[N+](C)(C)C)cc2)c(OCCC[N+](C)(C)C)cc1C#Cc1ccccc1.[Cl-].[Cl-].[Cl-].[Cl-].[Cl-].[Cl-] [S-OPE-3 (x=H)]
dark biocidal activity [4, 7]: observed
